Experimental data: US8999970B2, “Administration of an anti-obesity compound to individuals with renal impairment” (Arena Pharmaceuticals, Inc., priority 2010, dated 2015)
“Also recorded” adds a separate entry of the source.

Tests used:
[1] = Clinical trial APD356-016: plasma and urine pharmacokinetics of lorcaserin, M1 and M5 after a 10 mg dose in subjects with renal impairment; settings: for Ae0-120 / fe0-120: urine; for AUC24 hr / Cmax / t1/2: 10 mg QD Authentic, Day 1
Method: The interaction of renal insufficiency with the pharmacokinetics, tolerability and safety of lorcaserin were evaluated in a formal PK study in subjects with renal impairment and in the populations studied in phase 2 and phase 3 clinical studies.
The pharmacokinetic properties of lorcaserin in subjects with varying degrees of renal impairment were evaluated in clinical trial APD356-016. At the time of study conduct and analysis, subjects were assigned to renal impairment groups based on creatinine clearance calculated using IDEAL body weight (Table 1). This calculation was used to avoid overestimation of creatinine clearance due to the excess body weight (overweight and obese subjects were enrolled in the trial). Summaries of pharmacokinetic properties by group assignment using creatinine clearance calculated using ACTUAL body weights are also provided in the sections that follow.
The FDA expects a reasonable margin between anticipated exposures and exposures that may produce toxicity. A reasonable margin can vary depending on the expected toxicity, but generally is an order of magnitude (10 times), but can sometimes be less for mild toxicity.
Table 13. Summary of Plasma Concentrations (ng/mL) of HSO3-APD356 Metabolite over Time by Group: Severe Renal Impairment Not Receiving Dialysis (see Table 13 next page)
Subject number 3140-505 was on dialysis and grouped in the end stage renal disease group.

[2] = Preclinical toxicology: M1 and M5 pharmacokinetics after oral administration of lorcaserin, 52 wk, mice
[3] = Preclinical toxicology: M1 and M5 pharmacokinetics after oral administration of lorcaserin, 52 wk, rats
[4] = 10 mg dose, Mild, actual BW groups
[5] = 10 mg dose, Mild, ideal BW groups
[6] = 10 mg dose, Moderate, actual BW groups
[7] = 10 mg dose, Moderate, ideal BW groups
[8] = 10 mg dose, Normal, actual BW groups
[9] = 10 mg dose, Normal, ideal BW groups
[10] = 10 mg dose, Severe N = 1, actual BW groups
[11] = 10 mg dose, Severe, ideal BW groups
[12] = lorcaserin 25 mg/kg/day oral, F
[13] = lorcaserin 25 mg/kg/day oral, M
[14] = lorcaserin 50 mg/kg/day oral, F
[15] = lorcaserin 50 mg/kg/day oral, M
[16] = lorcaserin 10 mg/kg/day oral, F
[17] = lorcaserin 10 mg/kg/day oral, M
[18] = lorcaserin 30 mg/kg/day oral, F
[19] = lorcaserin 30 mg/kg/day oral, M
[20] = lorcaserin 100 mg/kg/day oral, F
[21] = lorcaserin 100 mg/kg/day oral, M

For `C[C@H]1CN(S(=O)(=O)O)CCc2ccc(Cl)cc21` [Compound M1, lorcaserin sulfamate], the “% AUC0-inf Extrapolated” value [1, 4] was 4.54%, the ClNR/F [1, 4] was 16.7 L/h and the T1/2z [1, 4] was 14.6 h. For the same compound, the “% AUC0-inf Extrapolated” value [1, 5] was 3.36%, the ClNR/F [1, 5] was 12.8 L/h and the T1/2z [1, 5] was 13.0 h. The “% AUC0-inf Extrapolated” value [1, 6] was 3.74%, the ClNR/F [1, 6] was 18.2 L/h and the T1/2z [1, 6] was 14.9 h. The “% AUC0-inf Extrapolated” value [1, 7] was 4.92%, the ClNR/F [1, 7] was 17.0 L/h and the T1/2z [1, 7] was 15.9 h. For the same compound, the “% AUC0-inf Extrapolated” value [1, 8] was 3.57%, the ClNR/F [1, 8] was 15.1 L/h and the T1/2z [1, 8] was 12.1 h. For the same compound, the “% AUC0-inf Extrapolated” value [1, 9] was 3.81%, the ClNR/F [1, 9] was 17.1 L/h and the T1/2z [1, 9] was 11.0 h. The “% AUC0-inf Extrapolated” value [1, 10] was 3.70%, the ClNR/F [1, 10] was 17.2 L/h and the T1/2z [1, 10] was 18.8 h. For the same compound, the “% AUC0-inf Extrapolated” value [1, 11] was 3.59%, the AUC0-inf [1, 11] was 23.6 µg·h/mL and the ClNR/F [1, 11] was 19.0 L/h. For the same compound, the T1/2z [1, 11] was 15.0 h, the Ae0-120 [1, 4] was 297 µg and the fe0-120 [1, 4] was 0.0352. The Ae0-120 [1, 5] was 326 µg, the fe0-120 [1, 5] was 0.0386 and the Ae0-120 [1, 6] was 304 µg. The fe0-120 [1, 6] was 0.0360, the Ae0-120 [1, 7] was 327 µg and the fe0-120 [1, 7] was 0.0387. It also gave an Ae0-120 [1, 8] of 257 µg, a fe0-120 [1, 8] of 0.0304 and an Ae0-120 [1, 9] of 185 µg. The fe0-120 [1, 9] was 0.0220, the Ae0-120 [1, 10] was 204 µg and the fe0-120 [1, 10] was 0.0242. For the same compound, the Ae0-120 [1, 11] was 280 µg, the fe0-120 [1, 11] was 0.0332 and the Removal by hemodialysis ([1]; ESRD) was “not removed; also recorded: not cleared”. For the same compound, the AUC24 hr ([1]; ESRD) was 3.65 µg·h/mL, the Cmax ([1]; ESRD) was 67.6 ng/mL and the AUC24 hr ([1]; Mild) was 1.94 µg·h/mL. It also gave a Cmax ([1]; Mild) of 43.5 ng/mL, a t1/2 ([1]; Mild) of 45.5 h and an AUC24 hr ([1]; Moderate) of 2.24 µg·h/mL. For the same compound, the Cmax ([1]; Moderate) was 34.1 ng/mL, the t1/2 ([1]; Moderate) was 70.8 h and the AUC24 hr ([1]; Normal) was 1.27 µg·h/mL. It also gave a Cmax ([1]; Normal) of 33.6 ng/mL, a t1/2 ([1]; Normal) of 36.2 h and an AUC24 hr ([1]; Severe) of 7.85 µg·h/mL. The Cmax ([1]; Severe) was 103 ng/mL, the t1/2 ([1]; Severe) was 220 h and the “Exposure (Geometric Mean Ratio for AUCinf) increase compared to normal subjects” value ([1]; mild (CLcr=51-80 mL/min)) was 1.6 fold. The “Terminal half-life prolonged by” value ([1]; mild renal impairment) was 26%, the “Exposure (Geometric Mean Ratio for AUCinf) increase compared to normal subjects” value ([1]; moderate (CLcr=31-50 mL/min)) was 2.3 fold and the “Terminal half-life prolonged by” value ([1]; moderate renal impairment) was 96%. For the same compound, the “Exposure (Geometric Mean Ratio for AUCinf) increase compared to normal subjects” value ([1]; severe (CLcr=5-30 mL/min)) was 16.7 fold, the “Maximum individual Cmax relative to the mean Cmax” value ([1]; severe renal impairment) was “more than five times” and the “Terminal half-life prolonged by” value ([1]; severe renal impairment) was 508%. The “AUC0-inf of subject 3285-009” value ([1]; severe renal impairment (ideal BW)) was 101 µg·h/mL, the Mean plasma concentration ([1]; severe renal impairment, eight individuals, day 1, 4 hours) was 99.5 ng/mL and the “Plasma concentration (Cmax) of subject 3285-009” value ([1]; severe renal impairment, day 1, 4 hours) was 542 ng/mL. For the same compound, the AUC0-inf ([2]; lorcaserin 5 mg/kg/day oral, F) was 75.2 µg·h/mL, the AUClast ([2]; lorcaserin 5 mg/kg/day oral, F) was 74.4 µg·h/mL and the Cmax ([2]; lorcaserin 5 mg/kg/day oral, F) was 14400 ng/mL. For the same compound, the tmax ([2]; lorcaserin 5 mg/kg/day oral, F) was 0.5 h, the AUC0-inf ([2]; lorcaserin 5 mg/kg/day oral, M) was 61.2 µg·h/mL and the AUClast ([2]; lorcaserin 5 mg/kg/day oral, M) was 59.7 µg·h/mL. For the same compound, the Cmax ([2]; lorcaserin 5 mg/kg/day oral, M) was 10800 ng/mL, the tmax ([2]; lorcaserin 5 mg/kg/day oral, M) was 0.5 h and the AUC0-inf [2, 12] was 221 µg·h/mL. For the same compound, the AUClast [2, 12] was 217 µg·h/mL, the Cmax [2, 12] was 39800 ng/mL and the tmax [2, 12] was 0.5 h. For the same compound, the AUClast [2, 13] was 223 µg·h/mL, the Cmax [2, 13] was 25400 ng/mL and the tmax [2, 13] was 0.5 h. For the same compound, the AUC0-inf [2, 14] was 356 µg·h/mL, the AUClast [2, 14] was 345 µg·h/mL and the Cmax [2, 14] was 49100 ng/mL. The tmax [2, 14] was 0.5 h, the AUC0-inf [2, 15] was 319 µg·h/mL and the AUClast [2, 15] was 308 µg·h/mL. It also gave a Cmax [2, 15] of 42700 ng/mL, a tmax [2, 15] of 0.5 h and an AUC0-inf [3, 16] of 200 µg·h/mL. The AUClast [3, 16] was 193 µg·h/mL, the Cmax [3, 16] was 16300 ng/mL and the tmax [3, 16] was 1.0 h. It also gave an AUC0-inf [3, 17] of 175 µg·h/mL, an AUClast [3, 17] of 170 µg·h/mL and a Cmax [3, 17] of 15400 ng/mL. For the same compound, the tmax [3, 17] was 1.0 h, the AUC0-inf [3, 18] was 443 µg·h/mL and the AUClast [3, 18] was 412 µg·h/mL. For the same compound, the Cmax [3, 18] was 31700 ng/mL, the tmax [3, 18] was 4.0 h and the AUC0-inf [3, 19] was 338 µg·h/mL. The AUClast [3, 19] was 319 µg·h/mL, the Cmax [3, 19] was 23900 ng/mL and the tmax [3, 19] was 1.0 h. The AUC0-inf [3, 20] was 1480 µg·h/mL, the AUClast [3, 20] was 1050 µg·h/mL and the Cmax [3, 20] was 63700 ng/mL. It also gave a tmax [3, 20] of 2.0 h, an AUC0-inf [3, 21] of 927 µg·h/mL and an AUClast [3, 21] of 633 µg·h/mL. For the same compound, the Cmax [3, 21] was 36000 ng/mL and the tmax [3, 21] was 0.5 h.
